Active and inactive are the calls of the source. No cut-off for these calls is given here.
Columns and labels:
A549 = assay: Cytotoxicity against human A549 cells incubated for 72 hrs by MTT assay; conditions: A549, 72 h
PC-3 [1] = assay: Induction of mitochondrial membrane potential loss in human PC-3 cells assessed as decrease in JC-1 aggregate level by measuring red fluorescence intensity at 0.08 uM incubated for 24 hrs by JC-1 staining based flow cytometry analysis (reference value: 93.5%); type: functional; design: scale not given: the % may be the effect or the level left
PC-3 [2] = assay: Inhibition of colony formation in human PC-3 cells at 40 nM incubated for 24 hrs followed by replacement with fresh media and measured after 2 weeks by crystal violet staining based assay; type: functional
PC-3 [3] = assay: Induction of cell cycle arrest in human PC-3 cells assessed as G2/M phase cells at 0.08 uM incubated for 24 hrs by PI staining based flow cytometry analysis (reference value: 12.83%); type: functional
Tubulin (Homo sapiens) = Tubulin (Homo sapiens) (UniProt P68371+Q9H4B7+P0DPH7+P68366+Q13509+Q71U36+P04350+Q3ZCM7+P07437+P68363+Q9BQE3+Q6PEY2+Q13885+Q9BVA1+Q9BUF5); assay: Inhibition of microtubule polymerization in human PC-3 cells assessed as disorganized microtubule filaments at 0.32 uM incubated for 6 hrs by immunofluorescent staining based confocal microscopy assay; type: cell-based
PC-3 [4] = assay: Induction of apoptosis in human PC-3 cells assessed as viable cells at 0.16 uM incubated for 24 hrs by Annexin V-FITC and PI staining based flow cytometry (reference value: 97.5%); type: functional; conditions: read-out: Activity
[5] = AUC(0 to t) in Sprague-Dawley rat at 2 mg/kg, iv measured upto 24 hrs by HPLC-MS analysis; type: ADME, organism-based; conditions: in vivo
PC-3 [6] = assay: Induction of apoptosis in human PC-3 cells assessed as upregulation of cleaved PARP expression at 0.08 to 0.32 uM by Western blotting analysis; type: functional, cell-based; conditions: dose 0.08-0.32 µM
PC-3 [7] = assay: Induction of apoptosis in human PC-3 cells assessed as downregulation of Bim expression at 0.08 to 0.32 uM by Western blotting analysis; type: functional, cell-based; conditions: dose 0.08-0.32 µM
PC-3 [8] = assay: Induction of cell cycle arrest in human PC-3 cells assessed as G2/M phase cells at 0.16 uM incubated for 24 hrs by PI staining based flow cytometry analysis (reference value: 12.83%); type: functional
PC-3 [9] = assay: Induction of mitochondrial membrane potential loss in human PC-3 cells assessed as decrease in JC-1 aggregate level by measuring red fluorescence intensity at 0.32 uM incubated for 24 hrs by JC-1 staining based flow cytometry analysis (reference value: 93.5%); type: functional; design: scale not given: the % may be the effect or the level left
HUVEC = assay: Anti-angiogenesis activity against HUVECs assessed as reduction in capillary like tubules at 0.1 to 1.6 uM incubated for 6 hrs by matrigel based microscopic analysis; type: functional, cell-based; conditions: Homo sapiens, dose 0.1-1.6 µM
PC-3 [10] = assay: Induction of apoptosis in human PC-3 cells assessed as downregulation of Bcl-2 expression at 0.08 to 0.32 uM by Western blotting analysis; type: functional, cell-based; conditions: dose 0.08-0.32 µM
[11] = target: Histone deacetylase 3 (Homo sapiens) (UniProt O15379); assay: Inhibition of HDAC3 in human PC-3 cells assessed as increase in acetylated Histone-H3 level incubated for 24 hrs by Western blotting assay; type: cell-based; conditions: dose 0.08-0.32 µM
PC-3 [12] = assay: Induction of cell cycle arrest in human PC-3 cells assessed as S phase cells at 0.32 uM incubated for 24 hrs by PI staining based flow cytometry analysis (reference value: 31.7%); type: functional
[13] = Toxicity in BALB/c nude mouse xenografted with human PC-3 cells assessed as liver damage at 10 to 20 mg/kg, iv administered every 2 days and measured after 3 weeks; type: organism-based; conditions: in vivo, 504 h, dose 10-20 mg/kg
[14] = target: T1, Protein deacetylase HDAC6 (Homo sapiens) (UniProt Q9UBN7); assay: Inhibition of HDAC6 in human PC-3 cells assessed as increase in acetylated alpha-tubulin level incubated for 24 hrs by Western blotting assay; type: cell-based; conditions: dose 0.08-0.32 µM
T1 sequence (whole entry): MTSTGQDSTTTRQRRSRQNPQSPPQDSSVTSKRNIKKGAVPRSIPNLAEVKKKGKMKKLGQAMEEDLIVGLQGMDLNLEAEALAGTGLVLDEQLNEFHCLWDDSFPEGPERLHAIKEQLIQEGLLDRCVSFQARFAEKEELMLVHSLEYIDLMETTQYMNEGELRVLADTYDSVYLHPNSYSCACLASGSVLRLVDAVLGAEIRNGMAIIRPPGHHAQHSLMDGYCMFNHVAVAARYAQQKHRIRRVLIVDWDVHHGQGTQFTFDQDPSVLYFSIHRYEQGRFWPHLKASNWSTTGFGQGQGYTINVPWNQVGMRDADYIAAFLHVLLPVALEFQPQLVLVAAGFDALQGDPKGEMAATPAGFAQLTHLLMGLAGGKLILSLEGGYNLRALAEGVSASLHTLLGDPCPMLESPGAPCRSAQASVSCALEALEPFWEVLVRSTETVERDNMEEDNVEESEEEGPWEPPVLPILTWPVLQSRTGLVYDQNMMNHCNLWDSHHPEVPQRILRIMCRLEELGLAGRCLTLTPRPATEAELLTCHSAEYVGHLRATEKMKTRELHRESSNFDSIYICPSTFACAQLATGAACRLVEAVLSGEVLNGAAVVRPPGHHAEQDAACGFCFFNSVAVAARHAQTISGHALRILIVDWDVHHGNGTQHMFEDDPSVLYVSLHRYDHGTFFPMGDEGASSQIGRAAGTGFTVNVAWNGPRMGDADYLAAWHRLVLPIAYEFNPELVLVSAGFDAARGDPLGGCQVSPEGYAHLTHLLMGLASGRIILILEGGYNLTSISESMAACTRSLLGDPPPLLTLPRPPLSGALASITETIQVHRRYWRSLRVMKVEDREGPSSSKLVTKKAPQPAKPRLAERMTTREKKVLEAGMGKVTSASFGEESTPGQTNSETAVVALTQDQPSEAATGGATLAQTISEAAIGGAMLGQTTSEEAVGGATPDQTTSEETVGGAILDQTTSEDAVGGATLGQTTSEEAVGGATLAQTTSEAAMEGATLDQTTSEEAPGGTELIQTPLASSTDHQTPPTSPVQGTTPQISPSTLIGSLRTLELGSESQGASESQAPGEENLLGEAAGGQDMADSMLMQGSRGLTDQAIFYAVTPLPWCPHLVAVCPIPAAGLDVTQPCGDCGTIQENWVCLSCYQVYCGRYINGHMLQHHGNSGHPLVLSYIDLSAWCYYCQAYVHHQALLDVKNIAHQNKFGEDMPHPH

PC-3 [15] = assay: Induction of cell cycle arrest in human PC-3 cells assessed as decrease in phosphorylated […] Tyr15 by Western blotting analysis; type: functional, cell-based; conditions: dose 0.08-0.32 µM
[16] = Toxicity in BALB/c nude mouse xenografted with human PC-3 cells assessed as lung damage at 10 to 20 mg/kg, iv administered every 2 days and measured after 3 weeks; type: organism-based; conditions: in vivo, 504 h, dose 10-20 mg/kg
PC-3 [17] = assay: Induction of apoptosis in human PC-3 cells assessed as necrotic cells at 0.32 uM incubated for 24 hrs by Annexin V-FITC and PI staining based flow cytometry (reference value: 0.13%); type: functional
PC-3 [18] = assay: Induction of cell cycle arrest in human PC-3 cells assessed as decrease in phosphorylated Cdc2 at […] by Western blotting analysis; type: functional, cell-based; conditions: dose 0.08-0.32 µM

Chain of Histone deacetylase 3 (Homo sapiens) (O15379 whole entry): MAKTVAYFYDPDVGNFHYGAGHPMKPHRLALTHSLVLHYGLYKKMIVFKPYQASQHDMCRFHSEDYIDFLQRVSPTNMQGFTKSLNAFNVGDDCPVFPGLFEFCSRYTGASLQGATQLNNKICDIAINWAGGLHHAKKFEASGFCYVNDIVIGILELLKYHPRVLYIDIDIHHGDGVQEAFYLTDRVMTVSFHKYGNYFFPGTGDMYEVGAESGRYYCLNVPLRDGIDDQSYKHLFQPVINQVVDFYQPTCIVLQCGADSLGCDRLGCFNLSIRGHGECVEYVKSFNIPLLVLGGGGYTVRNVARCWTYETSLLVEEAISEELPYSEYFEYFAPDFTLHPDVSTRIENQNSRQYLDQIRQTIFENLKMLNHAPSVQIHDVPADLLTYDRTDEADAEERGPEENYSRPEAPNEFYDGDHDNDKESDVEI

inhibition (Tubulin (Homo sapiens)): Active
AUCt [5]: 9084 µg/L/h
inhibition [11]: Dose-Dependent Effect
inhibition [14]: Dose-Dependent Effect
Compound: COc1ccc(/C=C/C(=O)c2ccc(OC)c3c2OC(C)(C)C=C3)cc1NCC(=O)NO
IC50 (A549): 290 nM
Activity (PC-3 [1]): 88.4%
inhibition at 0.04 µM (PC-3 [2]): 100%
Activity (PC-3 [3]): 25.45%
viability at 0.16 µM (PC-3 [4]): 78.8%
Activity (PC-3 [6]): Active
Activity (PC-3 [7]): Active
Activity (PC-3 [8]): 50.56%
Activity (PC-3 [9]): 58.9%
Activity (HUVEC): Active
Activity (PC-3 [10]): Active
Activity (PC-3 [12]): 10.6%
Activity [13]: Non-Toxic
Activity (PC-3 [15]): Active
Activity [16]: Non-Toxic
Activity (PC-3 [17]): 0.19%
Activity (PC-3 [18]): Active
